Assay results from patent publication US12583815B2, “Inhibitors of YAP/TAZ-TEAD oncoproteins, synthesis and use thereof” (BRIDGENE BIOSCIENCES, INC., priority 2020, dated 2026).

What follows are compounds tested against T1, TEAD1 (Homo sapiens, UniProt P28347) (assay: TEAD1-Luciferase reporter assay (MCF-7 cell-based TEAD1-Luc assay)). Details: cells treated with compound overnight, luciferase chemiluminescence readout.
T1 construct: endogenous in cells; host or cells: MCF-7
Protocol: TEAD1-Luciferase Reporter Assay to Characterize the Pharmacological Properties of the Tead1 Covalent Inhibitors
FIG. 1 is a schematic illustration of the mechanism of TEAD1 inhibition by the disclosed compounds, which is the theoretical basis for the development of a TEAD-YAP/TAZ cell-based functional assay to characterize the pharmacological properties of the synthesized inhibitor compounds. The MCF-7 cell-based TEAD1-Luc assay for the IC50 measurement was performed as below. Compounds 2, 4, 5, and 7, representing different chemical scaffolds, were characterized. About 200 μL of culture medium was placed in each of the 10^4 cell/well in a 96-well plate. The next day the cells were treated with the synthesized compounds for overnight. The luciferase activity was measured with a chemiluminescent assay kit. Specifically, the plate was equilibrated at room temperature. […] and 50 μL of the medium was left inside. To each well was added 50 μL Luciferase reagents. The plates were gently rocked for more than about 15 minutes at room temperature. The luminescence signal was then read and recorded. Table 2 below summarizes the measured IC50 values for the disclosed compounds.

T1 sequence (P28347 whole entry): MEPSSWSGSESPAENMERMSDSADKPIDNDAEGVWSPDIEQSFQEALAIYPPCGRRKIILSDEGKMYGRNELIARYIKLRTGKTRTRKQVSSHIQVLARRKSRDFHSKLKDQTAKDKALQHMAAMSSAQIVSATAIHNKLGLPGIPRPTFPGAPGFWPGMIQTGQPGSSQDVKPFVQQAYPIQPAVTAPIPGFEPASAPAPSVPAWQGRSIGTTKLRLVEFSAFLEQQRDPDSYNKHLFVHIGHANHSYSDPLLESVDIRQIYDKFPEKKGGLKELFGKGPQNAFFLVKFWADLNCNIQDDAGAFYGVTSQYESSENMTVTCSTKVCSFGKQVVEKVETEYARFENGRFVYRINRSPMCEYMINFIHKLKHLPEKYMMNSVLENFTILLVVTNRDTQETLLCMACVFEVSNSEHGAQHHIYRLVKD

Row | IC50 [nM] | SMILES
1 | 100 to 5000 | C=CC(=O)NC1COCC(Oc2cccc(C(F)(F)F)c2)C1 (stereo not drawn) [Compound 39, N-(5-(3-(trifluoromethyl)phenoxy)tetrahydro-2H-pyran-3-yl)acrylamide]
2 | ≤ 100 | C=CC(=O)Nc1ccc(-c2nocc2C(F)(F)F)cc1 [Compound 31, N-(4-(4-(trifluoromethyl)isoxazol-3-yl)phenyl)acrylamide]
3 | ≤ 100 | C=CC(=O)Nc1cc(F)cc(Oc2ccc(C(F)(F)F)cc2)c1 [Compound 12, N-(3-fluoro-5-(4-(trifluoromethyl)phenoxy)phenyl)acrylamide]
4 | 100 to 5000 | C=CC(=O)N[C@H]1CC[C@@H](Oc2cccc(C(F)(F)F)c2)C1 (single isomer, unassigned) [Compound 42, N-((1S*,3R*)-3-(3-(trifluoromethyl)phenoxy)cyclopentyl)acrylamide]
5 | ≤ 100 | C=CC(=O)Nc1cccc(Oc2ccc(C(F)(F)F)cn2)c1 [Compound 14, N-(3-((5-(trifluoromethyl)pyridin-2-yl)oxy)phenyl)acrylamide]
6 | ≤ 100 | C=CC(=O)Nc1ccc(-c2cc(C(F)(F)F)sn2)cc1 [Compound 54, N-(4-(5-(trifluoromethyl)isothiazol-3-yl)phenyl)acrylamide]
7 | 100 to 5000 | C=CC(=O)Nc1ccc2c(c1)CCN(CCCCC)C2=O [Compound 50, N-(1-oxo-2-pentyl-1,2,3,4-tetrahydroisoquinolin-6-yl)acrylamide]
8 | ≤ 100 | C=CC(=O)Nc1cccc(OC2CCC(F)(F)CC2)c1 [Compound 40, N-(3-((4,4-difluorocyclohexyl)oxy)phenyl)acrylamide]
9 | ≤ 100 | C=CC(=O)Nc1ccc2c(c1)CCC/C2=N\OCC [Compound 47, (E)-N-(5-(ethoxyimino)-5,6,7,8-tetrahydronaphthalen-2-yl)acrylamide]
10 | ≥ 5000 | C#CCCCO/N=C1/CCc2cc(NC(=O)C=C)ccc21 [Compound 7]
11 | 100 to 5000 | C=CC(=O)NC1CCC(Oc2cc(C(F)(F)F)on2)C1 (stereo not drawn) [Compound 46, N-(3-((5-(trifluoromethyl)isoxazol-3-yl)oxy)cyclopentyl)acrylamide]

Row | SMILES | IC50 [nM]
12 | C=CC(=O)Nc1ccc2c(c1)CCC/C2=N\OCC(C)C [Compound 49, (E)-N-(5-(isobutoxyimino)-5,6,7,8-tetrahydronaphthalen-2-yl)acrylamide] | ≤ 100
